The values below come from patent US20090029992A1, “SUBSTITUTED PYRAZOLE COMPOUNDS” (priority 2007, published 2009).

Experiment [1] deals with T1, N-terminal His-tagged human Src (Homo sapiens, UniProt P12931).
T1 construct: His (N); purchased Upstate USA Inc, 706 Forest Street, Charlottesville, Va
In words: Src kinase inhibition assay (33P-ATP filter assay). The class given is biochemical. The procedure:
(§1) Compounds were assayed for Src kinase inhibitory activity using N-terminal His-tagged human Src (Upstate USA Inc, 706 Forest Street, Charlottesville, Va.). Serial dilutions of compound were assayed in a final reaction volume of 25 μL by incubating a solution of the above Src kinase (5-10 mU), 8 mM MOPS (3-(N-morpholino) propanesulfonic acid) pH 7.0, 0.2 mM EDTA (ethylenediamine tetracetic acid), 250 μM amino acid sequence KVEKIGEGTYGVVYK (Upstate USA Inc, 706 Forest Street, Charlottesville, Va.), and 10 mM magnesium acetate and [γ-^33P-ATP] (specific activity of about 500 cpm/μmol, concentration as required). The reaction was initiated by the addition of the magnesium acetate and [γ-^33P-ATP] mixture. After incubation for 40 minutes at room temperature, the reaction was stopped by the addition of 5 μL of a 3% phosphoric acid solution. A 10 μL aliquote of the reaction was then spotted onto a P30 filtermat (PerkinElmer, Wellesley, Mass.) and washed three times for five minutes in 75 mM phosphoric acid and once in methanol prior to drying and scintillation counting. Inhibition of Src activity was determined by comparison to assays that contained no inhibitor.

The target of experiment [2] is T2, N-terminal His6-tagged recombinant human KDR, residues 790-end (Homo sapiens, UniProt P35968).
T2 construct: recombinant human KDR, residues 790-end; His6 (N); purchased Upstate USA Inc, 706 Forest Street, Charlottesville, Va
The experiment in a line: KDR kinase inhibition assay (33P-ATP filter assay). The class given is biochemical. The procedure:
as §1, with “for KDR” for “for Src”, “N-terminal His6-tagged recombinant” for “N-terminal His-tagged”, “human KDR, residues 790-end” for “human Src”, “above KDR” for “above Src”, “acid), 0.33 mg/mL myelin basic protein” for “acid), 250 μM amino acid sequence KVEKIGEGTYGVVYK”, “of KDR” for “of Src”

Another experiment relates to HCT116 cells. In words: Whole cell cytotoxicity assay, Sulforhodamine B. It is filed as cell-based. As to conditions: Homo sapiens, HCT-116, HCT116, 96 hours incubation, SRB; for IC50: read-out: IC50 values in this assay (HCT116 cell growth); for GI50: read-out: GI50 HCT116 cell growth. The method, then: Human tumor-derived cell lines, HCT116 or MCF7 (ATCC) were plated in a 96 well plate in DMEM containing 10% fetal bovine serum and 2 mM L-glutamine at a density of 500 HCT116 cells or 1,000 MCF7 cells per well and incubated at 37° C., 5% CO2, for 24 hours prior to the addition of experimental compounds. Compounds were added using the dilution series indicated to duplicate plates and the cells were incubated in media plus compound for 96 hours. An additional plate was fixed in 10% TCA at the time of the addition of compound to provide a measurement of the cell population at time zero, the time of drug addition. Following the 96 hour incubation, cells were fixed in situ by gently aspirating off the culture media and then adding 50 ul of ice cold 10% TCA per well and incubation at 4° C. for 60 minutes. The plates were washed with tap water five times and allowed to air dry for 5 minute. 50 ul of a 0.4% (w/v) Sulforhodamine B solution in 1% (v/v) acetic acid was added per well and the cells were incubated for 30 minutes at room temperature. Following staining, plates were washed four times with 1% acetic acid to remove any unbound dye and then allowed to air dry for 5 minutes. The stain was solubilized with 100 ul of 10 mM Tris pH 10.5 per well and placed on an orbital rotator for 5 minutes. The absorbance was read at 570 nm. Percentage growth was calculated using the absorbance readings from the time zero plate (Tz) and the dilution series plate […] which included a column of cells grown in media without compound as a control (C) using the formulas:
[(Ti−Tz)/(C−Tz)]×100 for concentrations for which Ti>/=Tz
[(Ti−Tz)/Tz]×100 for concentrations for which Ti<Tz.
Three dose response parameters were calculated for each experimental agent. Growth inhibition of 50% (GI50) was calculated from [(Ti−Tz)/(C−Tz)]×100=50, which was the drug concentration resulting in a 50% reduction in the net protein increase (as measured by SRB staining) in control cells during the drug incubation. The drug concentration resulting in total growth inhibition (TGI) was calculated from Ti=Tz. The LC50 (concentration of drug resulting in a 50% reduction in the measured protein at the end of the drug treatment as compared to that at the beginning) indicating a net loss of cells following treatment ws calculated from [(Ti−Tz)/Tz]×100=−50. Values are calculated for each of these three parameters if the level of activity was reached; however, if the effect was not reached or was exceeded, the value for that parameter is expressed as greater or less than the maximum or minimum concentration tested.

The target in experiment [3] is T3, N-terminal GST-tagged recombinant human Flt3, residues 564-end (Homo sapiens, UniProt P36888).
T3 construct: recombinant human Flt3, residues 564-end; GST (N); purchased Upstate USA Inc, 706 Forest Street, Charlottesville, Va
T3 sequence (P36888 564-993 limits assumed): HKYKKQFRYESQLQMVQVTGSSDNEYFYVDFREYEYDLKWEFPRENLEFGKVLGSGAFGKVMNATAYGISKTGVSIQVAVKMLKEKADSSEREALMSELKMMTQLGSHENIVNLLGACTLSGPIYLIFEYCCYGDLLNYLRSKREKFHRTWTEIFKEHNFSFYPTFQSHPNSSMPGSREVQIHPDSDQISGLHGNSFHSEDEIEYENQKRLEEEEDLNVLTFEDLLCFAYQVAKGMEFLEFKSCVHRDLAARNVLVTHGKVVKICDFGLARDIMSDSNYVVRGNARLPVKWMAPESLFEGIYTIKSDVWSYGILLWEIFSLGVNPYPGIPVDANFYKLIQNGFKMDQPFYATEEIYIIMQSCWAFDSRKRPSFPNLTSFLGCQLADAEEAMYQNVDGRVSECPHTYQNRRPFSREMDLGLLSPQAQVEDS
In words: Flt3 kinase inhibition assay (33P-ATP filter assay). As to conditions: 40 minutes at room temperature. It is filed as biochemical. The method, then: Compounds were assayed for Flt3 kinase inhibitory activity using N-terminal GST-tagged recombinant human Flt3, residues 564-end (Upstate USA Inc, 706 Forest Street, Charlottesville, Va.). Serial dilutions of compound were assayed in a final reaction volume of 25 μL by incubating a solution of the above Flt3 kinase (5-10 mU), 8 mM MOPS (3-(N-morpholino) propanesulfonic acid) pH 7.0, 0.2 mM EDTA (ethylenediamine tetracetic acid), 50 μM amino acid sequence EAIYAAPFAKKK (Upstate USA Inc, 706 Forest Street, Charlottesville, Va.), and 10 mM magnesium acetate and [γ-^33P-ATP] (specific activity of about 500 cpm/μmol, concentration as required). The reaction was initiated by the addition of the magnesium acetate and [γ-^33P-ATP] mixture. After incubation for 40 minutes at room temperature, the reaction was stopped by the addition of 5 μL of a 3% phosphoric acid solution. A 10 μL aliquote of the reaction was then spotted onto a P30 filtermat (PerkinElmer, Wellesley, Mass.) and washed three times for five minutes in 75 mM phosphoric acid and once in methanol prior to drying and scintillation counting. Inhibition of Flt3 activity was determined by comparison to assays that contained no inhibitor.

[4] abbreviates: group with IC50 greater than 100 nM.

T1 sequence (P12931 whole entry): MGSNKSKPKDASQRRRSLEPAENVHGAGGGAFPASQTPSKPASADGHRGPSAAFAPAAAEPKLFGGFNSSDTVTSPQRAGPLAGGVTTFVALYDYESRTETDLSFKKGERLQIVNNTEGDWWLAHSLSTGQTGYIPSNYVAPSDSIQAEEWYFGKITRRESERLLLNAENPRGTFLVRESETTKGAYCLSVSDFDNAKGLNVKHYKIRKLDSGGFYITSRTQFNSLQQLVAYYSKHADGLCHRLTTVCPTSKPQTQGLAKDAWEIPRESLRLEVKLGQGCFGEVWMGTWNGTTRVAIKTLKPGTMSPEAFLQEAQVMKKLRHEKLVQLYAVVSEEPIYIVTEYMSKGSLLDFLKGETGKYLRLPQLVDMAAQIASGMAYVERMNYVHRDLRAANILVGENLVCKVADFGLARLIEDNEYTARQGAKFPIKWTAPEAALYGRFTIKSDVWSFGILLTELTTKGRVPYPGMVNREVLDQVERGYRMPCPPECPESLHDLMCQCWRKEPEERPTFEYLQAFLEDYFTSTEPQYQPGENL
T2 sequence (P35968 790-1356 limits assumed): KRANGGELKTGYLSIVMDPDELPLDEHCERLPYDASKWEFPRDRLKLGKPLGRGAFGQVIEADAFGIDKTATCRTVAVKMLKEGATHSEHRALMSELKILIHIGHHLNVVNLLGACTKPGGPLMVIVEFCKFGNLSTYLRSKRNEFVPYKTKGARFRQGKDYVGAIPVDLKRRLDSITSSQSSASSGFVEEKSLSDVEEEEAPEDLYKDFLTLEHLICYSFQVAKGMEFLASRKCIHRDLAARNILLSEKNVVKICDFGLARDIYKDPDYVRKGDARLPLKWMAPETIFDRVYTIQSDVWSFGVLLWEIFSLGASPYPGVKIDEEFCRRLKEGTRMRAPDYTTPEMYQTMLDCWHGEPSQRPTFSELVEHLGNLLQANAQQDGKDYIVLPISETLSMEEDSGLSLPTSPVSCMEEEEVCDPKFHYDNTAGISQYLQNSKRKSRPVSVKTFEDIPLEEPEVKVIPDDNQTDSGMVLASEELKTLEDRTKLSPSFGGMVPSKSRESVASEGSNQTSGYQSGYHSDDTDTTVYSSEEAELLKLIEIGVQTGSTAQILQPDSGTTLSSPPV

A word on the IC50: it is the midpoint of a concentration-inhibition curve. As for `Cc1cccc(-c2nc(Nc3cc(C)[nH]n3)cc(NC3CCOCC3)n2)c1` [Compound 26, N^4-(5-methyl-1H-pyrazol-3-yl)-N^6-(tetrahydro-2H-pyran-4-yl)-2-m-tolylpyrimidine-4,6-diamine], the IC50 in experiment [1] (setting [4]) was not above 1000 nM; in experiment [2] (40 minutes at room temperature) it was not above 100 nM; with HCT116 cells it was 1000 to 10000 nM.

Consider `Cc1cc(Nc2cc(NC3CCOCC3)nc(-c3ccc4ccccc4c3)n2)n[nH]1` [Example 128, N^4-(5-methyl-1H-pyrazol-3-yl)-2-(naphthalen-2-yl)-N^6-(tetrahydro-2H-pyran-4-yl)pyrimidine-4,6-diamine], for which the IC50 in experiment [1] (40 minutes at room temperature) is not above 100 nM; in experiment [2] (40 minutes at room temperature), not above 100 nM; in experiment [3], not above 100 nM; in the experiment with HCT116 cells it was 1000 to 10000 nM.

Take `Cc1cc(Nc2cc(N(C)CCN(C)C)nc(-c3cccc(C)c3C)n2)n[nH]1` [Example 182, N^4-(2-(dimethylamino)ethyl)-2-(2,3-dimethylphenyl)-N^4-methyl-N^6-(5-methyl-1H-pyrazol-3-yl)pyrimidine-4,6-diamine]: the IC50 was not above 1000 nM in experiment [1] (setting [4]), not above 1000 nM in experiment [2] (setting [4]), not above 100 nM in experiment [3] and 1000 to 10000 nM in the experiment on HCT116 cells.

On to `COCCN(C)c1cc(Nc2cc(C)[nH]n2)nc(-c2ccc(C(C)(C)C)cc2)n1` [Compound 115, 2-(4-tert-butylphenyl)-N^4-(2-methoxyethyl)-N^4-methyl-N^6-(5-methyl-1H-pyrazol-3-yl)pyrimidine-4,6-diamine], for which the figures for the IC50 (in experiment [1] (setting [4]); in experiment [3]; with HCT116 cells) were not above 1000 nM, not above 100 nM and 1000 to 10000 nM, respectively.

The term GI50 denotes the concentration that inhibits growth by half. Regarding `Cc1cc(Nc2cc(N(C)CCN(C)C)nc(-c3cccc4ccccc34)n2)n[nH]1` [Example 141, N^4-(2-(dimethylamino)ethyl)-N^4-methyl-N^6-(5-methyl-1H-pyrazol-3-yl)-2-(naphthalen-1-yl)pyrimidine-4,6-diamine], the IC50 in experiment [1] (setting [4]) was not above 1000 nM; in experiment [2] (setting [4]) it was not above 1000 nM; in experiment [3], not above 100 nM. Besides, the GI50 in the experiment on HCT116 cells was not above 1000 nM.

Regarding `Cc1cc(Nc2cc(N(C)CCN(C)C)nc(-c3ccccc3C(F)(F)F)n2)n[nH]1` [Compound 114, N^4-(2-(dimethylamino)ethyl)-N^4-methyl-N^6-(5-methyl-1H-pyrazol-3-yl)-2-(2-(trifluoromethyl)phenyl)pyrimidine-4,6-diamine], the 50% inhibitory concentration (IC50) in experiment [1] (setting [4]) is not above 1000 nM; in experiment [2] (40 minutes at room temperature) it was not above 100 nM; in experiment [3], not above 100 nM; with HCT116 cells, 1000 to 10000 nM.

As to `Cc1cc(Nc2cc(N3CCN(C)CC3)nc(-c3ccc(F)cc3F)n2)n[nH]1` [Example 189, 2-(2,4-difluorophenyl)-N-(5-methyl-1H-pyrazol-3-yl)-6-(4-methylpiperazin-1-yl)pyrimidin-4-amine], the IC50 in experiment [1] (setting [4]) was not above 1000 nM; in experiment [2] (setting [4]) it was not above 1000 nM; in experiment [3], not above 100 nM; in the experiment with HCT116 cells, 1000 to 10000 nM.

Consider `COc1ccccc1-c1nc(Nc2cc(C)[nH]n2)cc(N2CCN(C)CC2)n1` [Compound 43, 2-(2-methoxyphenyl)-N-(5-methyl-1H-pyrazol-3-yl)-6-(4-methylpiperazin-1-yl)pyrimidin-4-amine], for which the IC50 is not above 1000 nM in experiment [1] (setting [4]), not above 1000 nM in experiment [2] (setting [4]), not above 100 nM in experiment [3] and 1000 to 10000 nM in the experiment on HCT116 cells.

As for `Cc1cc(Nc2cc(N(C)CCN(C)C)nc(-c3cc(F)ccc3F)n2)n[nH]1` [Example 183, 2-(2,5-difluorophenyl)-N^4-(2-(dimethylamino)ethyl)-N^4-methyl-N^6-(5-methyl-1H-pyrazol-3-yl)pyrimidine-4,6-diamine], the half-maximal inhibitory concentration (IC50) is not above 1000 nM in experiment [1] (setting [4]), not above 100 nM in experiment [2] (40 minutes at room temperature), not above 100 nM in experiment [3] and 1000 to 10000 nM in the experiment on HCT116 cells.

Regarding `Cc1cc(Nc2cc(N(C)CCN(C)C)nc(-c3ccccc3Cl)n2)n[nH]1` [Compound 50, 2-(2-chlorophenyl)-N4-(2-(dimethylamino)ethyl)-N4-methyl-N6-(5-methyl-1H-pyrazol-3-yl)pyrimidine-4,6-diamine], the half-maximal inhibitory concentration (IC50) was not above 100 nM in experiment [1] (40 minutes at room temperature); not above 1000 nM in experiment [1] (setting [4]); not above 100 nM in experiment [2] (40 minutes at room temperature); not above 100 nM in experiment [3]; 1000 to 10000 nM in the experiment with HCT116 cells. The concentration for 50% growth inhibition (GI50) in the experiment on HCT116 cells was not above 1000 nM.

Consider `CCc1ccccc1-c1nc(Nc2cc(C)[nH]n2)cc(N(C)CCOC)n1` [Example 187, 2-(2-ethylphenyl)-N^4-(2-methoxyethyl)-N^4-methyl-N^6-(5-methyl-1H-pyrazol-3-yl)pyrimidine-4,6-diamine], for which the IC50 in experiment [1] (40 minutes at room temperature) was not above 100 nM; in experiment [2] (setting [4]), not above 1000 nM; in experiment [3] it was not above 100 nM.
